From ChEMBL document CHEMBL3608295, “Antimicrobial activity of doubly-stapled alanine/lysine-based peptides” (Bioorg Med Chem Lett, 2015) come the findings set out here.

Values after ≈ are worked out from the molar mass of the structure shown. Starred links: 1 amine or outer side, 2 acyl side, 3 side chain; linkers in the order of their positions; H or OH if unused. Positions of bridges follow the written chain, without caps; N, C: chain ends. Non-standard residues stand in square brackets, D forms with d. Residues, ends and D or L forms follow the SMILES beside them. R5 = C=CCCC[C@@](C)(N)C(=O)O; Suc = O=C(CCC(=O)[*:2])[*:1]

One data set deals with Salmonella typhimurium. Briefly: Antimicrobial activity against Salmonella typhimurium ATCC 14028 after 24 hrs by broth microdilution method. In kind it is functional, Salmonella enterica subsp. enterica serovar Typhimurium. The following applies: Salmonella enterica, ATCC 14028, 24 h. A general note: Broth dilution looks for growth in wells or tubes with falling amounts of substance.

A further data set has as its system Klebsiella pneumoniae. Briefly: Antimicrobial activity against Klebsiella pneumoniae ATCC 10031 after 24 hrs by broth microdilution method. In kind it is functional. The following applies: ATCC 10031, 24 h.
A short description of data set [1]: Hemolytic activity in human RBC at 12.5 uM after 30 mins relative to control. In kind it is ADME, cell-based, Erythrocyte. The following applies: human red blood cells (RBC), read-out: Activity.
Another data set deals with Staphylococcus aureus. The data set is described as follows: Antimicrobial activity against Staphylococcus aureus ATCC 6538p after 24 hrs by broth microdilution method. In kind it is functional.
The subject of another data set is Escherichia coli. The data set is described as follows: Antimicrobial activity against Escherichia coli ATCC 25922 after 24 hrs by broth microdilution method. In kind it is functional. The following applies: ATCC 25922, 24 h.
Data set [2] has as its system Staphylococcus epidermidis. Briefly: Antimicrobial activity against Staphylococcus epidermidis ATCC 12228 after 24 hrs by broth microdilution method. The following applies: ATCC 12228, 24 h. It is filed as functional.
For the next data set, the system named is Shigella dysenteriae. Briefly: Antimicrobial activity against Shigella dysenteriae ATCC 9752 after 24 hrs by broth microdilution method. In kind it is functional. The following applies: ATCC 9752, 24 h.
Another data set concerns Bacillus spizizenii. The data set is described as follows: Antimicrobial activity against Bacillus subtilis ATCC 6633 after 24 hrs by broth microdilution method. The following applies: ATCC 6633, 24 h. It is filed as functional.
The nature of data set [3]: Hemolytic activity in human RBC at 25 uM after 30 mins relative to control. In kind it is ADME, cell-based, Erythrocyte. The following applies: human red blood cells (RBC), read-out: Activity.
Another data set deals with Pseudomonas aeruginosa. Briefly: Antimicrobial activity against Pseudomonas aeruginosa ATCC 27853 after 24 hrs by broth microdilution method. It is filed as functional. The following applies: ATCC 27853, 24 h.
The nature of data set [4]: (§1) Stability of the compound assessed as trypsin (unknown origin)-mediated compound degradation at substrate/enzyme ratio of 1600/1 at 25 degC after 10 mins by HPLC analysis. In kind it is ADME. The following applies: human, 10 min.
The subject of data set [5] is trypsin. The data set is described as follows: Stability of the compound assessed as trypsin (unknown origin)-mediated compound degradation by measuring compound remaining at substrate/enzyme ratio of 1600/1 at 25 degC after 60 mins by HPLC analysis. In kind it is ADME. The following applies: human, read-out: Stability.
For data set [6], the system named is trypsin. The data set is described as §1. It is filed as ADME. The following applies: human, trypsin (unknown origin); read-out: Drug degradation.

`CC(=O)N[C@@H](CCCCN)C(=O)N[C@]1(C)CCC/C=C\CCC[C@](C)(C(=O)N[C@@H](CCCCN)C(=O)N[C@@H](CCCCN)C(=O)N[C@]2(C)CCC/C=C\CCC[C@](C)(C(=O)N[C@@H](C)C(=O)N[C@@H](CCCCN)C(N)=O)NC(=O)[C@H](Cc3c[nH]c4ccccc34)NC(=O)[C@H](CCCCN)NC(=O)[C@H](C)NC2=O)NC(=O)[C@H](C)NC(=O)[C@H](CCCCN)NC(=O)[C@H](C)NC1=O` (Ac-K[R5]AKA[R5]KK[R5]AKW[R5]AK-NH2; staple (Z) 2-6, 9-13): the minimal inhibitory concentration (MIC) in the data set on Salmonella typhimurium amounted to 200 µg/mL (≈ 111 µM); against Klebsiella pneumoniae, 100 µg/mL (≈ 55.6 µM); in the data set on Staphylococcus aureus it was 3.1 µg/mL (≈ 1.72 µM); against Escherichia coli, 50 µg/mL (≈ 27.8 µM); in [2], 4.8 µg/mL (≈ 2.67 µM); with Shigella dysenteriae, 50 µg/mL (≈ 27.8 µM). Besides, the MIC is 1.6 µg/mL (≈ 0.889 µM) against Bacillus spizizenii and 100 µg/mL (≈ 55.6 µM) with Pseudomonas aeruginosa. Also, the hemolysis at 0.5 h, 12.5 µM in data set [1] worked out at 25.3%. Moreover, in [3], the hemolysis at 0.5 h, 25 µM is 42.5%.
Turning to Ac-KAAKAAKKAAKAAWK-NH2, the MIC (against Salmonella typhimurium; in the data set with Klebsiella pneumoniae; against Staphylococcus aureus; against Escherichia coli; in data set [2]; in the data set with Shigella dysenteriae) was above 200 µg/mL throughout. Moreover, the MIC in the data set on Bacillus spizizenii and against Pseudomonas aeruginosa was above 200 µg/mL each time. The Stability result in data set [4] is on record as “Unstable”. Also, the hemolysis at 0.5 h, 12.5 µM in data set [1] is below 1%. In data set [3], the hemolysis at 0.5 h, 25 µM was below 1%.
As for `CC(=O)N[C@@H](CCCCN)C(=O)N[C@]1(C)CCC/C=C\CCC[C@](C)(C(=O)N[C@@H](CCCCN)C(=O)N[C@@H](CCCCN)C(=O)N[C@]2(C)CCC/C=C\CCC[C@](C)(C(=O)N[C@@H](Cc3c[nH]c4ccccc34)C(=O)N[C@@H](CCCCN)C(N)=O)NC(=O)[C@H](C)NC(=O)[C@H](CCCCN)NC(=O)[C@H](C)NC2=O)NC(=O)[C@H](C)NC(=O)[C@H](CCCCN)NC(=O)[C@H](C)NC1=O` (Ac-K[R5]AKA[R5]KK[R5]AKA[R5]WK-NH2; staple (Z) 2-6, 9-13), the MIC in the data set on Salmonella typhimurium was determined as 100 µg/mL (≈ 55.6 µM); against Klebsiella pneumoniae, 200 µg/mL (≈ 111 µM); with Staphylococcus aureus, 4.8 µg/mL (≈ 2.67 µM); in the data set on Escherichia coli, 25 µg/mL (≈ 13.9 µM); in data set [2], 3.1 µg/mL (≈ 1.72 µM); with Shigella dysenteriae it was 25 µg/mL (≈ 13.9 µM). Further, the results for the MIC in the data set with Bacillus spizizenii and against Pseudomonas aeruginosa were 1.6 µg/mL (≈ 0.889 µM) and 100 µg/mL (≈ 55.6 µM), respectively. Moreover, the remaining at 1 h with trypsin [5] is above 85%. Also, the hemolysis at 0.5 h, 12.5 µM in [1] is 22.1%. Moreover, the hemolysis at 0.5 h, 25 µM in data set [3] amounted to 38.8%.
Regarding `CC(=O)N[C@@H](CCCCN)C(=O)N[C@]1(C)CCC/C=C\CCC[C@](C)(C(=O)N[C@@H](CCCCN)C(=O)N[C@@H](CCCCN)C(=O)N[C@]2(C)CCC/C=C\CCC[C@](C)(C(=O)N[C@@H](C)C(=O)N[C@@H](CCCCN)C(N)=O)NC(=O)[C@H](C)NC(=O)[C@H](CCCCN)NC(=O)[C@H](C)NC2=O)NC(=O)[C@H](C)NC(=O)[C@H](CCCCN)NC(=O)[C@H](Cc2c[nH]c3ccccc23)NC1=O` (Ac-K[R5]WKA[R5]KK[R5]AKA[R5]AK-NH2; staple (Z) 2-6, 9-13), the MIC in the data set with Salmonella typhimurium is 100 µg/mL (≈ 55.6 µM); with Klebsiella pneumoniae it was 100 µg/mL (≈ 55.6 µM); with Staphylococcus aureus, 4.8 µg/mL (≈ 2.67 µM); in the data set on Escherichia coli, 25 µg/mL (≈ 13.9 µM); in [2], 4.8 µg/mL (≈ 2.67 µM); in the data set on Shigella dysenteriae it was 50 µg/mL (≈ 27.8 µM). Moreover, the MIC against Bacillus spizizenii is 3.1 µg/mL (≈ 1.72 µM); against Pseudomonas aeruginosa, 200 µg/mL (≈ 111 µM). Besides, in data set [1], the hemolysis at 0.5 h, 12.5 µM turned out to be 28.9%. The hemolysis at 0.5 h, 25 µM in [3] is 42.5%.
For the molecule `CC(=O)N[C@@H](CCCCN)C(=O)N[C@]1(C)CCC/C=C\CCC[C@](C)(C(=O)N[C@@H](CCCCN)C(=O)N[C@@H](CCCCN)C(=O)N[C@@H](C)C(=O)N[C@@H](C)C(=O)N[C@@H](CCCCN)C(=O)N[C@@H](C)C(=O)N[C@@H](C)C(=O)N[C@@H](Cc2c[nH]c3ccccc23)C(=O)N[C@@H](CCCCN)C(N)=O)NC(=O)[C@H](C)NC(=O)[C@H](CCCCN)NC(=O)[C@H](C)NC1=O` (Ac-K[R5]AKA[R5]KKAAKAAWK-NH2; staple (Z) 2-6), the MIC in the data set on Salmonella typhimurium was above 200 µg/mL; against Klebsiella pneumoniae, 18.8 µg/mL (≈ 11.1 µM); in the data set on Staphylococcus aureus, 9.4 µg/mL (≈ 5.56 µM); against Escherichia coli it was 3.1 µg/mL (≈ 1.83 µM); in data set [2], 75 µg/mL (≈ 44.3 µM); in the data set with Shigella dysenteriae it was 18.8 µg/mL (≈ 11.1 µM). The figures for the MIC in the data set with Bacillus spizizenii and in the data set on Pseudomonas aeruginosa were 25 µg/mL (≈ 14.8 µM) and 100 µg/mL (≈ 59.1 µM), respectively. Moreover, the metabolised at 10 min with trypsin [6] is 73%. Also, the hemolysis at 0.5 h, 12.5 µM in [1] is below 1%. For the same molecule, the hemolysis at 0.5 h, 25 µM in data set [3] is below 1%.
Turning to `CC(=O)N[C@@H](CCCCN)C(=O)N[C@]1(C)CCC/C=C\CCC[C@](C)(C(=O)N[C@@H](CCCCN)C(=O)N[C@@H](CCCCN)C(=O)N[C@]2(C)CCC/C=C\CCC[C@](C)(C(=O)N[C@@H](C)C(=O)N[C@@H](CCCCN)C(N)=O)NC(=O)[C@H](C)NC(=O)[C@H](CCCCN)NC(=O)[C@H](C)NC2=O)NC(=O)[C@H](Cc2c[nH]c3ccccc23)NC(=O)[C@H](CCCCN)NC(=O)[C@H](C)NC1=O` (Ac-K[R5]AKW[R5]KK[R5]AKA[R5]AK-NH2; staple (Z) 2-6, 9-13), the MIC with Salmonella typhimurium stood at 37.5 µg/mL (≈ 20.8 µM); in the data set on Klebsiella pneumoniae, 37.5 µg/mL (≈ 20.8 µM); against Staphylococcus aureus, 1.6 µg/mL (≈ 0.889 µM); with Escherichia coli it was 18.8 µg/mL (≈ 10.4 µM); in data set [2], 1.6 µg/mL (≈ 0.889 µM); in the data set on Shigella dysenteriae, 25 µg/mL (≈ 13.9 µM). Besides, the values for the MIC against Bacillus spizizenii and against Pseudomonas aeruginosa were 1.6 µg/mL (≈ 0.889 µM) and 25 µg/mL (≈ 13.9 µM), respectively. The hemolysis at 0.5 h, 12.5 µM in [1] amounted to 22%. The hemolysis at 0.5 h, 25 µM in data set [3] was determined as 38.5%.
For the molecule `C[C@@H]1NC(=O)[C@H](CCCCN)NC(=O)[C@H](C)NC(=O)[C@](C)(NC(=O)[C@H](CCCCN)NC(=O)[C@H](CCCCN)NC(=O)[C@@]2(C)CCC/C=C\CCC[C@@](C)(NC(=O)[C@H](CCCCN)NC(=O)CCC(=O)O)C(=O)N[C@@H](C)C(=O)N[C@@H](CCCCN)C(=O)N[C@@H](Cc3c[nH]c4ccccc34)C(=O)N2)CCC/C=C\CCC[C@](C)(C(=O)N[C@@H](C)C(=O)N[C@@H](CCCCN)C(N)=O)NC1=O` (Suc-K[R5]AKW[R5]KK[R5]AKA[R5]AK-NH2; staple (Z) 2-6, 9-13), the MIC against Salmonella typhimurium was above 200 µg/mL; against Klebsiella pneumoniae it was 25 µg/mL (≈ 13.5 µM); against Staphylococcus aureus, 1.6 µg/mL (≈ 0.861 µM); against Escherichia coli, 12.5 µg/mL (≈ 6.73 µM); in data set [2] it was 1.6 µg/mL (≈ 0.861 µM); against Shigella dysenteriae, 50 µg/mL (≈ 26.9 µM). The MIC against Bacillus spizizenii came out at 1.6 µg/mL (≈ 0.861 µM); with Pseudomonas aeruginosa, 50 µg/mL (≈ 26.9 µM). Moreover, the hemolysis at 0.5 h, 12.5 µM in data set [1] came out at 19.5%. The hemolysis at 0.5 h, 25 µM in [3] amounted to 32.6%.
Regarding `C[C@@H]1NC(=O)[C@H](CCCCN)NC(=O)[C@H](C)NC(=O)[C@](C)(NC(=O)[C@H](CCCCN)NC(=O)[C@H](CCCCN)NC(=O)[C@@]2(C)CCC/C=C\CCC[C@@](C)(NC(=O)[C@@H](N)CCCCN)C(=O)N[C@@H](C)C(=O)N[C@@H](CCCCN)C(=O)N[C@@H](Cc3c[nH]c4ccccc34)C(=O)N2)CCC/C=C\CCC[C@](C)(C(=O)N[C@@H](C)C(=O)N[C@@H](CCCCN)C(N)=O)NC1=O` (H-K[R5]AKW[R5]KK[R5]AKA[R5]AK-NH2; staple (Z) 2-6, 9-13), the MIC against Salmonella typhimurium turned out to be 6.3 µg/mL (≈ 3.59 µM); in the data set on Klebsiella pneumoniae it was 12.5 µg/mL (≈ 7.11 µM); with Staphylococcus aureus it was 1.6 µg/mL (≈ 0.91 µM); in the data set with Escherichia coli, 3.1 µg/mL (≈ 1.76 µM); in data set [2] it was 1.6 µg/mL (≈ 0.91 µM); in the data set with Shigella dysenteriae, 12.5 µg/mL (≈ 7.11 µM). Further, the MIC against Bacillus spizizenii was found to be 1.6 µg/mL (≈ 0.91 µM); in the data set on Pseudomonas aeruginosa it was 6.3 µg/mL (≈ 3.59 µM). Besides, the hemolysis at 0.5 h, 12.5 µM in data set [1] stood at 13.5%. Moreover, the hemolysis at 0.5 h, 25 µM in [3] was 25.5%.

The term MIC denotes the lowest concentration found to suppress growth. A high value points to weaker potency.
